The values below come from ChEMBL document CHEMBL5131493, “Synthesis and evaluation of RNase L-binding 2-aminothiophenes as anticancer agents” (Bioorg Med Chem, 2022).

For experiment [1], the system named is MCF7. Description: Antiproliferative activity against human MCF7 cells assessed as cell growth inhibition incubated for 72 hrs by MTT assay. Type of experiment: functional, cell-based. As to conditions: MCF7, 72 h.
In experiment [2] the test system is K562. Description: Antiproliferative activity against human K562 cells assessed as cell growth inhibition at 10 uM incubated for 72 hrs by MTT assay relative to control. Type of experiment: functional. (Tetrazolium assays rely on reduction of a dye to a coloured formazan, in cell work by metabolically active cells.)
The subject of experiment [3] is JAR. Description: Antiproliferative activity against human JAR cells assessed as cell growth inhibition at 10 uM incubated for 72 hrs by MTT assay relative to control. Type of experiment: functional.
The test system of experiment [4] is JAR. The experiment is described as follows: Antiproliferative activity against human JAR cells assessed as cell growth inhibition incubated for 72 hrs by MTT assay. Type of experiment: functional, cell-based.
Experiment [5] concerns A549. The experiment is described as follows: Antiproliferative activity against human A549 cells assessed as cell growth inhibition incubated for 72 hrs by MTT assay. Type of experiment: functional, cell-based. As to conditions: A549, 72 h.
Experiment [6] has as its system A549. The experiment is described as follows: Antiproliferative activity against human A549 cells assessed as cell growth inhibition at 10 uM incubated for 72 hrs by MTT assay relative to control. Type of experiment: functional.
The test system of experiment [7] is K562. The experiment is described as follows: Antiproliferative activity against human K562 cells assessed as cell growth inhibition incubated for 72 hrs by MTT assay. Type of experiment: functional, cell-based. The following applies: K562, 72 h.
Experiment [8] relates to MCF7. The experiment is described as follows: Antiproliferative activity against human MCF7 cells assessed as cell growth inhibition at 10 uM incubated for 72 hrs by MTT assay relative to control. Type of experiment: functional.
The species entered for experiment [9] is Homo sapiens. The experiment is described as follows: Binding affinity to RNase L (unknown origin) expressed in Escherichia coli BL21 (DE3) assessed as thermal stability by measuring melting temperature at 60 uM incubated for 50 mins by NanoDSF analysis.
In experiment [10] the test system is JAR. Description: Induction of apoptosis in human JAR cells assessed as fold increase in cleaved PARP level at 10 uM incubated for 24 hrs by Western blot analysis. Type of experiment: functional.
The test system of experiment [11] is JAR. Description: Inhibition of colony formation in human JAR cells measured after 3 days by Giemsa staining based microscopic analysis. Type of experiment: functional, cell-based. As to conditions: time 3.0 day, DDE = dose-dependent effect.
Experiment [12] deals with JAR. The experiment is described as follows: Inhibition of cell migration in human JAR cells at 5 uM measured after 72 hrs by scratch wound healing assay relative to control. Type of experiment: functional.
Experiment [13] has as its system JAR. Description: Inhibition of colony formation in human JAR cells assessed as cell reproductive death at upto 5 uM measured after 3 days by Giemsa staining based microscopic analysis. Type of experiment: functional. The following applies: time 3.0 day.

Structures are written as SMILES. Calls of active or inactive are those of the source. No cut-off for these calls is given here.

In general, IC50 refers to the concentration at which inhibition is half-maximal. Broadly, the inhibition is the share of the control response that was lost under treatment. For `CCOC(=O)C1=C(Nc2ccccc2)S/C(=C\c2ccc(C(=O)OCC)[nH]2)C1=O`, the IC50 was 30.5 µM in experiment [1], 10.6 µM in [4], more than 100 µM in experiment [5] and 46.8 µM in [7]. The inhibition at 10 µM in experiment [2] was 18.6%; in [3], 60.1%; in experiment [6], less than 10%.

`CCOC(=O)C1=C(Nc2ccccc2Br)S/C(=C\c2ccc[nH]2)C1=O`: the IC50 in experiment [1] came to 27.1 µM; in [4], 8.9 µM; in [5], 43.2 µM; in experiment [7], 36.3 µM. The inhibition at 10 µM in [2] was determined as 20.5%; in experiment [3], 62.7%; in experiment [8], 29.4%.

With `CCOC(=O)C1=C(Nc2ccccc2)S/C(=C\c2ccc[nH]2)C1=O`, the IC50 was 48 µM in experiment [1], 9.5 µM in [4], more than 100 µM in [5] and 71 µM in experiment [7]. For the same compound, the inhibition at 10 µM in experiment [2] was determined as 16.2%; in [3], 49.2%; in experiment [8] it was 18.3%; in [6] it was 23.5%.

In general, ΔTm refers to the change in melting temperature against a reference sample. Turning to `CCOC(=O)C1=C(Nc2ccccc2)S/C(=C\c2ccc(O)c(OC)c2)C1=O`, the ΔTm in experiment [9] was -1.3 °C. Moreover, the IC50 in experiment [1] is more than 100 µM; in experiment [4], 8.9 µM; in experiment [5], more than 100 µM; in [7], 10.4 µM. The figures for the inhibition at 10 µM in experiment [3], in [8] and in [6] were 49.7%, 23.2% and 24.2%, respectively.

Take `CCOC(=O)C1=C(Nc2ccccc2)SC(=C2CCC2)C1=O`: the thermal shift (ΔTm) in experiment [9] was found to be 0.7 °C. In addition, the IC50 was determined as 18.1 µM in [1], 8.4 µM in [4], 17 µM in experiment [5] and 4.5 µM in [7]. Further, the inhibition at 10 µM in [3] turned out to be 70.2%; in experiment [8], 40.4%.

Turning to `CCOC(=O)C1=C(Nc2ccccc2)S/C(=C\C2CCCCC2)C1=O`, in [9], the ΔTm is 1.4 °C. Further, the “fold change (FC)” value in experiment [10] is more than 1.5. The IC50 in experiment [1] came out at 6.4 µM; in experiment [4], 3.7 µM; in [5] it was 18 µM; in experiment [7] it was 5.9 µM. Also, the inhibition at 10 µM was 95.2% in experiment [3] and 45.3% in [8]. The inhibition entry in [11] is “Dde”. This compound also had an inhibition at 5 µM in [12] of 42%. Moreover, the inhibition result in experiment [13] is “Active”.
